Tested on: SCG neurons
Assay: In vitro protection of SCG neurons from Taxol killing
Format: cell-based, Sprague Dawley rats
Conditions: Rattus norvegicus, Neuron; Taxol 50 ng/mL, 48 hours, MTS viability; read-out: IC50, rescue from Taxol killing of SCG neurons
Description: Taxol™ is regularly used in the treatment of breast and other cancers. Taxol™ binds to the cyto-skeletal protein tubulin, thereby inhibiting normal microtubular […] and inducing cellular apoptosis. Despite its potency as an anti-tumour agent, Taxol™ is also toxic to neurons, inducing dose limiting peripheral neuropathies. The addition of Taxol™ to cultured SCG neurons induces the degradation or loss of upwards of 80% of the neurons. The addition of selected compounds of Formula I to the cellular media, concurrently with Taxol™, protects upwards of 100% of the neurons, at drug concentrations ranging from 3 to 50 μM (see Example 63).
In Vitro Protection of SCG neurons from Taxol killing. SCG neurons were isolated from day 1 neonatal Sprague Dawley rats, plated at a cell density of 10,000 cells/well, and incubated in Biowhittaker Ultraculture containing 1% Penstrep, 1% L-glutamine, 0.7% ARAC, 3% rat serum, and NGF (50 ng/mL, Calomone Labs) at 37° C., under a 5% CO2 atmosphere. After 5 days the cells were treated with compound and Taxol™ (50 ng/mL). Viability of neurons was assessed 48 hours later using MTS (Promega) staining. Table 4 summarizes selected IC50 values from compounds tested using this protocol. Also, see FIG. 1 for compound protection against Taxol killing.

Row | SMILES | IC50 [µM]
1 | O=c1oc2ccc(O)cc2s1 [Compound 1, 5-Hydroxybenzo[1,3]oxathiol-2-one] | 25
2 | O=c1oc2c(Cl)cc(O)c(Cl)c2s1 [Compound 3, 4,7-Dichloro-5-hydroxybenzo[1,3]oxathiol-2-one] | 10
3 | O=c1oc2c(Sc3cccc4ccccc34)cc(O)cc2s1 [Compound 22, 5-Hydroxy-7-((1-naphthyl)sulfanyl)benzo[1,3]oxathiol-2-one] | 10
4 | COc1ccc(NC(=O)Oc2cc(Sc3ccc4ccccc4c3)c3oc(=O)sc3c2)cc1 [Compound 26, 5-(N-(4-methoxyphenyl)carbamoyloxy)-7-((2-naphthyl)sulfanyl)benzo[1,3]oxathiol-2-one] | 7

Tested on: SCG neurons
Assay: Protection of SCG neurons from anti-NGF killing
Format: cell-based, Sprague Dawley rats
Conditions: Rattus norvegicus, Neuron, 48 h, read-out: IC50, rescue from anti-NGF killing of cultured SCG neurons
Procedure: Neurotrophins are critical to the growth, development, and survival of small fiber neurons of the PNS. SCG neurons are neurons of the PNS that undergo apoptosis upon NGF withdrawal. In a typical experiment SCG neurons are cultured in the presence of NGF, which induces survival and neurite out-growth. After 5 days the NGF is removed by either the addition of anti-NGF polyclonal antibody (Sigma) or by repeated washings (4 times) with NGF free media, resulting in the apoptosis of up to 90% of the neurons after 48 hours, as measured by MTS staining. The addition of selected compounds of Formula I to the final cellular media provides upwards of 100% protection, at drug concentrations ranging from 10 to 50 μM (see Example 62).
Protection of SCG neurons from anti-NGF killing. SCG neurons were isolated from day 1 neonatal Sprague Dawley rats, plated at a cell density of 5,000 cells/well, and incubated in Biowhittaker Ultraculture containing 1% Penstrep, 1% L-glutamine, 0.7% ARAC, 3% rat serum, and NGF (50 ng/mL, Calomone Labs), at 37° C., under a 5% CO2 atmosphere. After 4 days the cells were treated with anti-NGF antibody (Sigma). At this time compound was added and the cells were maintained serum and NGF free for 48 hours, at which time viability of the neurons was assessed using Alamar Blue (Medicorp) staining. Table 3 summarizes selected IC50 values from compounds tested using this protocol.

Row | SMILES | IC50 [µM]
5 | COc1ccc(NC(=O)Oc2cc(Sc3ccc4ccccc4c3)c3oc(=O)sc3c2)cc1 [Compound 26, 5-(N-(4-methoxyphenyl)carbamoyloxy)-7-((2-naphthyl)sulfanyl)benzo[1,3]oxathiol-2-one] | 16
6 | Cc1cc(OC(=O)NC2CCCCC2)cc2sc(=O)oc12 [Compound 31, 5-(N-Cyclohexylcarbamoyloxy)-7-methylbenzo[1,3]oxathiol-2-one] | 35
7 | O=c1oc2c(-c3ccc(Cl)cc3Cl)cc(O)cc2s1 [Compound 41, 7-(2,4-dichlorophenyl)-5-hydroxybenzo[1,3]oxathiol-2-one] | 7
8 | O=c1oc2c(-c3ccc(Br)cc3)cc(O)cc2s1 [Compound 44, 7-(4-bromophenyl)-5-hydroxybenzo[1,3]oxathiol-2-one] | 20

Same assay, conditions: Rattus norvegicus, Neuron; anti-NGF antibody, 48 hours, Alamar Blue viability; read-out: IC50, rescue from anti-NGF killing of cultured SCG neurons

Row | SMILES | IC50 [µM]
9 | CCSc1cc(O)cc2sc(=O)oc12 [Compound 5, 7-Ethylsulfanyl-5-hydroxybenzo[1,3]oxathiol-2-one] | > 30
10 | CCc1ccccc1Sc1cc(O)cc2sc(=O)oc12 [Compound 12, 7-((2-Ethylphenyl)sulfanyl)-5-hydroxybenzo[1,3]oxathiol-2-one] | > 30
11 | Cc1cccc(C)c1Sc1cc(O)cc2sc(=O)oc12 [Compound 13, 7-((2,6-Dimethylphenyl)sulfanyl)-5-hydroxybenzo[1,3]oxathiol-2-one] | > 30
12 | CC(C)c1ccccc1Sc1cc(O)cc2sc(=O)oc12 [Compound 14, 5-hydroxy-7-((2-iso-Propylphenyl)sulfanyl)benzo[1,3]oxathiol-2-one] | 30
13 | CC(C)(C)c1ccc(Sc2cc(O)cc3sc(=O)oc23)cc1 [Compound 17, 7-((4-tert-Butylphenyl)sulfanyl)-5-hydroxybenzo[1,3]oxathiol-2-one] | 25
14 | O=c1oc2c(Sc3ccccc3C(F)(F)F)cc(O)cc2s1 [Compound 18, 5-hydroxy-7-((2-Trifluoromethylphenyl)sulfanyl)benzo[1,3]oxathiol-2-one] | > 30
15 | O=c1oc2ccc(O)c(Sc3nc4ccccc4s3)c2s1 [Compound 21, 4-((Benzothiazol-2-yl)sulfanyl)-5-hydroxybenzo[1,3]oxathiol-2-one] | 50
16 | O=c1oc2c(Sc3cccc4ccccc34)cc(O)cc2s1 [Compound 22, 5-Hydroxy-7-((1-naphthyl)sulfanyl)benzo[1,3]oxathiol-2-one] | > 30
17 | O=c1oc2c([S+]([O-])c3ccc4ccccc4c3)cc(O)cc2s1 (stereo not shown) [Compound 24, 5-Hydroxy-7-((2-naphthyl)sulfinyl)benzo[1,3]oxathiol-2-one] | > 30
18 | O=c1oc2c(Sc3ccccc3)cc(O)c(Sc3ccc4ccccc4c3)c2s1 [Compound 29, 5-hydroxy-4-(2-naphthylthio)-7-((phenyl)sulfanyl)benzo[1,3]oxathiol-2-one] | > 30
19 | O=C(Oc1cc(-c2ccccc2)c2oc(=O)sc2c1)c1sc2ccccc2c1Cl [Compound 33, 5-(3-chlorobenzothiophen-2-ylcarbonyloxy)-7-phenylbenzo[1,3]oxathiol-2-one] | > 30
20 | O=c1oc2c(-c3ccccc3Cl)cc(O)cc2s1 [Compound 36, 7-(2-chlorophenyl)-5-hydroxybenzo[1,3]oxathiol-2-one] | 16
21 | O=c1oc2c(-c3cccc(Cl)c3)cc(O)cc2s1 [Compound 37, 7-(3-chlorophenyl)-5-hydroxybenzo[1,3]oxathiol-2-one] | > 30
22 | O=c1oc2c(-c3ccc(Cl)cc3)cc(O)cc2s1 [Compound 39, 7-(4-chlorophenyl)-5-hydroxybenzo[1,3]oxathiol-2-one] | 30
23 | O=c1oc2c(-c3cc(Cl)ccc3Cl)cc(O)cc2s1 [Compound 42, 7-(2,5-dichlorophenyl)-5-hydroxybenzo[1,3]oxathiol-2-one] | 17
24 | O=c1oc2c(-c3ccc(Cl)c(Cl)c3)cc(O)cc2s1 [Compound 43, 7-(3,4-dichlorophenyl)-5-hydroxybenzo[1,3]oxathiol-2-one] | 7
25 | O=c1oc2c(-c3cccc(I)c3)cc(O)cc2s1 [Compound 45, 5-hydroxy-7-(3-iodophenyl)benzo[1,3]oxathiol-2-one] | 7
26 | Cc1cccc(-c2cc(OC(=O)c3ccccc3Cl)cc3sc(=O)oc23)c1 [Compound 48, 5-(2-chlorophenylcarbonyloxy)-7-(3-methylphenyl)benzo[1,3]oxathiol-2-one] | 28
27 | Cc1cccc(C)c1-c1cc2oc(=O)sc2cc1O [Compound 50, 6-(2,6-dimethylphenyl)-5-hydroxybenzo[1,3]oxathiol-2-one] | 22
28 | COc1ccc(-c2cc(O)cc3sc(=O)oc23)cc1 [Compound 53, 5-hydroxy-7-(4-methoxyphenyl)benzo[1,3]oxathiol-2-one] | > 30
29 | O=c1oc2c(-c3ccc(-c4ccccc4)cc3)cc(O)cc2s1 [Compound 54, 7-biphenyl-5-hydroxybenzo[1,3]oxathiol-2-one] | 23
30 | CCNc1cc(C)cc2sc(=O)oc12 [Compound 56, 7-ethylamino-5-methylbenzo[1,3]oxathiol-2-one] | 40
31 | O=c1oc2c3c4c(cc2s1)CCCN4CCC3 [Compound 57] | 50
32 | O=c1oc2ccc(Nc3c(Cl)cc(Br)cc3Cl)cc2s1 [Compound 58, 5-(4-bromo-2,6-dichloroanalino)benzo[1,3]oxathiol-2-one] | 50

Same assay, conditions: anti-NGF antibody, 48 hours, Alamar Blue viability; read-out: IC50, rescue from anti-NGF killing of cultured SCG neurons

Row | SMILES | IC50 [µM]
33 | O=c1oc2c([S+]([O-])Cc3ccccc3)cc(O)cc2s1 (stereo not shown) [Compound 6] | > 30

Same assay, conditions: at 10 μM compound

Row | SMILES | rescue from anti-NGF killing, % at 10 μM [% at 10 μM]
34 | CC(C)c1ccccc1Sc1cc2oc(=O)sc2cc1O [Compound 15, 5-hydroxy-6-((2-iso-Propylphenyl)sulfanyl)benzo[1,3]oxathiol-2-one] | 40

Same assay, conditions: at 30 μM compound

Row | SMILES | rescue from anti-NGF killing, % at 30 μM [% at 30 μM]
35 | CC(C)c1ccc(Sc2cc(O)cc3sc(=O)oc23)cc1 [Compound 16, 7-(4-iso-Propylphenylthio)-5-hydroxybenzo[1,3]oxathiol-2-one] | 42
36 | O=c1oc2c(-c3ccc(F)cc3)cc(O)cc2s1 [Compound 35, 7-(4-fluorophenyl)-5-hydroxybenzo[1,3]oxathiol-2-one] | 40
37 | O=c1oc2c(-c3ccccc3C(F)(F)F)cc(O)cc2s1 [Compound 51, 5-hydroxy-7-(2-trifluoromethylphenyl)benzo[1,3]oxathiol-2-one] | 38

Same assay, conditions: at 50 μM compound

Row | SMILES | rescue from anti-NGF killing, % at 50 μM [% at 50 μM]
38 | O=C(Oc1cc(-c2cccc(Cl)c2)c2oc(=O)sc2c1)c1ccccc1Cl [Compound 38, 5-(2-chlorophenylcarbonyloxy)-7-(3-chlorophenyl)benzo[1,3]oxathiol-2-one] | 40
39 | Cc1cccc(C)c1-c1cc(O)cc2sc(=O)oc12 [Compound 49, 7-(2,6-dimethylphenyl)-5-hydroxybenzo[1,3]oxathiol-2-one] | 40
40 | CCc1cccc(CC)c1Nc1ccc2oc(=O)sc2c1 [Compound 59, 6-(2,6-diethylanalino)benzo[1,3]oxathiol-2-one] | 38

From US20060234987A1, “Neuroprotective benzo 1 3 oxathiol 2 ones” (priority 2003, published 2006)
